Laboratory results as given in PMC8214221, “Sequence determinants in the cathelicidin LL-37 that promote inflammation via presentation of RNA to scavenger receptors” (The Journal of Biological Chemistry, 2021).
Residues, ends and D or L forms follow the SMILES beside them.

system: normal human epidermal keratinocytes (NHEKs); experiment: LDH release cytotoxicity assay in keratinocytes; assay type: cell-based; conditions: minimal concentration giving 50% LDH release by NHEKs
Description: Since LL-34 was the minimal truncation mutant of LL-37 that retained both antimicrobial and immune modulatory activity, we prepared a series of synthetic peptides with sequential substitutions of alanine at each amino acid position of the LL-34 parent peptide (Table 1). We compared the minimum inhibitory concentration (MIC) for the LL-34 parent peptide and the alanine mutants (LL-34 peptides—L1A and R34A) against methicillin-resistant Staphylococcus aureus strain USA300 (Fig. 1A). LL-34 peptides were incubated at concentrations of 0 to 100 μM with bacteria. The minimal concentration at which no growth was observed was noted after 18 h of incubation. […] Because of these changes in the MIC against S. aureus between the mutants, we investigated the effective toxicity profile of the peptides in normal human epidermal keratinocytes (NHEKs) by lactate dehydrogenase (LDH) release assay (Table 1). […] Most other peptides were cytotoxic at a minimal concentration of 10 μM, whereas LL-34—K15A was toxic at a concentration of 2.5 μM.
LDH cytotoxicity assay was performed according to manufacturer's instructions (Thermo Fisher Scientific). Culture supernatants from keratinocytes were used fresh for LDH assay after experimental treatments.

Structure (SMILES)	Minimal cytotoxic concentration in NHEK (LD50)
CC[C@H](C)[C@H](NC(=O)[C@H](CCCCN)NC(=O)[C@H](CCC(=O)O)NC(=O)[C@H](CCCCN)NC(=O)[C@H](CO)NC(=O)[C@H](C)NC(=O)[C@H](CCCNC(=N)N)NC(=O)[C@H](Cc1ccccc1)NC(=O)[C@H](Cc1ccccc1)NC(=O)[C@H](CC(=O)O)NC(=O)CNC(=O)[C@H](CC(C)C)NC(=O)[C@@H](N)CC(C)C)C(=O)NCC(=O)N[C@@H](CCCCN)C(=O)N[C@@H](CCC(=O)O)C(=O)N[C@@H](Cc1ccccc1)C(=O)N[C@@H](CCCCN)C(=O)N[C@@H](CCCNC(=N)N)C(=O)N[C@H](C(=O)N[C@H](C(=O)N[C@@H](CCC(N)=O)C(=O)N[C@@H](CCCNC(=N)N)C(=O)N[C@H](C(=O)N[C@@H](CCCCN)C(=O)N[C@@H](CC(=O)O)C(=O)N[C@@H](Cc1ccccc1)C(=O)N[C@@H](CC(C)C)C(=O)N[C@@H](CCCNC(=N)N)C(=O)N[C@@H](CC(N)=O)C(=O)N[C@@H](CC(C)C)C(=O)N[C@H](C(=O)N1CCC[C@H]1C(=O)N[C@@H](CCCNC(=N)N)C(=O)O)C(C)C)[C@@H](C)CC)C(C)C)[C@@H](C)CC [LL-34—K8A] (H-LLGDFFRASKEKIGKEFKRIVQRIKDFLRNLVPR-OH; N-terminus and C-terminus assumed)	5 µM
CC[C@H](C)[C@H](NC(=O)[C@H](CCCCN)NC(=O)[C@H](CCC(=O)O)NC(=O)[C@H](C)NC(=O)[C@H](CO)NC(=O)[C@H](CCCCN)NC(=O)[C@H](CCCNC(=N)N)NC(=O)[C@H](Cc1ccccc1)NC(=O)[C@H](Cc1ccccc1)NC(=O)[C@H](CC(=O)O)NC(=O)CNC(=O)[C@H](CC(C)C)NC(=O)[C@@H](N)CC(C)C)C(=O)NCC(=O)N[C@@H](CCCCN)C(=O)N[C@@H](CCC(=O)O)C(=O)N[C@@H](Cc1ccccc1)C(=O)N[C@@H](CCCCN)C(=O)N[C@@H](CCCNC(=N)N)C(=O)N[C@H](C(=O)N[C@H](C(=O)N[C@@H](CCC(N)=O)C(=O)N[C@@H](CCCNC(=N)N)C(=O)N[C@H](C(=O)N[C@@H](CCCCN)C(=O)N[C@@H](CC(=O)O)C(=O)N[C@@H](Cc1ccccc1)C(=O)N[C@@H](CC(C)C)C(=O)N[C@@H](CCCNC(=N)N)C(=O)N[C@@H](CC(N)=O)C(=O)N[C@@H](CC(C)C)C(=O)N[C@H](C(=O)N1CCC[C@H]1C(=O)N[C@@H](CCCNC(=N)N)C(=O)O)C(C)C)[C@@H](C)CC)C(C)C)[C@@H](C)CC [LL-34—K10A] (H-LLGDFFRKSAEKIGKEFKRIVQRIKDFLRNLVPR-OH; N-terminus and C-terminus assumed)	5 µM
CC[C@H](C)[C@H](NC(=O)[C@H](CCCCN)NC(=O)[C@H](CCC(=O)O)NC(=O)[C@H](CCCCN)NC(=O)[C@H](CO)NC(=O)[C@H](CCCCN)NC(=O)[C@H](CCCNC(=N)N)NC(=O)[C@H](Cc1ccccc1)NC(=O)[C@H](Cc1ccccc1)NC(=O)[C@H](CC(=O)O)NC(=O)CNC(=O)[C@H](CC(C)C)NC(=O)[C@@H](N)CC(C)C)C(=O)NCC(=O)N[C@@H](C)C(=O)N[C@@H](CCC(=O)O)C(=O)N[C@@H](Cc1ccccc1)C(=O)N[C@@H](CCCCN)C(=O)N[C@@H](CCCNC(=N)N)C(=O)N[C@H](C(=O)N[C@H](C(=O)N[C@@H](CCC(N)=O)C(=O)N[C@@H](CCCNC(=N)N)C(=O)N[C@H](C(=O)N[C@@H](CCCCN)C(=O)N[C@@H](CC(=O)O)C(=O)N[C@@H](Cc1ccccc1)C(=O)N[C@@H](CC(C)C)C(=O)N[C@@H](CCCNC(=N)N)C(=O)N[C@@H](CC(N)=O)C(=O)N[C@@H](CC(C)C)C(=O)N[C@H](C(=O)N1CCC[C@H]1C(=O)N[C@@H](CCCNC(=N)N)C(=O)O)C(C)C)[C@@H](C)CC)C(C)C)[C@@H](C)CC [LL-34—K15A] (H-LLGDFFRKSKEKIGAEFKRIVQRIKDFLRNLVPR-OH; N-terminus and C-terminus assumed)	2.5 µM
CC[C@H](C)[C@H](NC(=O)[C@H](CCCCN)NC(=O)[C@H](CCC(=O)O)NC(=O)[C@H](CCCCN)NC(=O)[C@H](CO)NC(=O)[C@H](CCCCN)NC(=O)[C@H](CCCNC(=N)N)NC(=O)[C@H](Cc1ccccc1)NC(=O)[C@H](Cc1ccccc1)NC(=O)[C@H](CC(=O)O)NC(=O)CNC(=O)[C@H](CC(C)C)NC(=O)[C@@H](N)CC(C)C)C(=O)NCC(=O)N[C@@H](CCCCN)C(=O)N[C@@H](CCC(=O)O)C(=O)N[C@@H](Cc1ccccc1)C(=O)N[C@@H](C)C(=O)N[C@@H](CCCNC(=N)N)C(=O)N[C@H](C(=O)N[C@H](C(=O)N[C@@H](CCC(N)=O)C(=O)N[C@@H](CCCNC(=N)N)C(=O)N[C@H](C(=O)N[C@@H](CCCCN)C(=O)N[C@@H](CC(=O)O)C(=O)N[C@@H](Cc1ccccc1)C(=O)N[C@@H](CC(C)C)C(=O)N[C@@H](CCCNC(=N)N)C(=O)N[C@@H](CC(N)=O)C(=O)N[C@@H](CC(C)C)C(=O)N[C@H](C(=O)N1CCC[C@H]1C(=O)N[C@@H](CCCNC(=N)N)C(=O)O)C(C)C)[C@@H](C)CC)C(C)C)[C@@H](C)CC [LL-34—K18A] (H-LLGDFFRKSKEKIGKEFARIVQRIKDFLRNLVPR-OH; N-terminus and C-terminus assumed)	10 µM
CC[C@H](C)[C@H](NC(=O)[C@H](CCCCN)NC(=O)[C@H](CCC(=O)O)NC(=O)[C@H](CCCCN)NC(=O)[C@H](CO)NC(=O)[C@H](CCCCN)NC(=O)[C@H](CCCNC(=N)N)NC(=O)[C@H](Cc1ccccc1)NC(=O)[C@H](Cc1ccccc1)NC(=O)[C@H](CC(=O)O)NC(=O)CNC(=O)[C@H](CC(C)C)NC(=O)[C@H](C)N)C(=O)NCC(=O)N[C@@H](CCCCN)C(=O)N[C@@H](CCC(=O)O)C(=O)N[C@@H](Cc1ccccc1)C(=O)N[C@@H](CCCCN)C(=O)N[C@@H](CCCNC(=N)N)C(=O)N[C@H](C(=O)N[C@H](C(=O)N[C@@H](CCC(N)=O)C(=O)N[C@@H](CCCNC(=N)N)C(=O)N[C@H](C(=O)N[C@@H](CCCCN)C(=O)N[C@@H](CC(=O)O)C(=O)N[C@@H](Cc1ccccc1)C(=O)N[C@@H](CC(C)C)C(=O)N[C@@H](CCCNC(=N)N)C(=O)N[C@@H](CC(N)=O)C(=O)N[C@@H](CC(C)C)C(=O)N[C@H](C(=O)N1CCC[C@H]1C(=O)N[C@@H](CCCNC(=N)N)C(=O)O)C(C)C)[C@@H](C)CC)C(C)C)[C@@H](C)CC [LL-34—L1A] (H-ALGDFFRKSKEKIGKEFKRIVQRIKDFLRNLVPR-OH; N-terminus and C-terminus assumed)	5 µM
CC[C@H](C)[C@H](NC(=O)[C@H](CCCCN)NC(=O)[C@H](CCC(=O)O)NC(=O)[C@H](CCCCN)NC(=O)[C@H](CO)NC(=O)[C@H](CCCCN)NC(=O)[C@H](CCCNC(=N)N)NC(=O)[C@H](Cc1ccccc1)NC(=O)[C@H](Cc1ccccc1)NC(=O)[C@H](CC(=O)O)NC(=O)CNC(=O)[C@H](C)NC(=O)[C@@H](N)CC(C)C)C(=O)NCC(=O)N[C@@H](CCCCN)C(=O)N[C@@H](CCC(=O)O)C(=O)N[C@@H](Cc1ccccc1)C(=O)N[C@@H](CCCCN)C(=O)N[C@@H](CCCNC(=N)N)C(=O)N[C@H](C(=O)N[C@H](C(=O)N[C@@H](CCC(N)=O)C(=O)N[C@@H](CCCNC(=N)N)C(=O)N[C@H](C(=O)N[C@@H](CCCCN)C(=O)N[C@@H](CC(=O)O)C(=O)N[C@@H](Cc1ccccc1)C(=O)N[C@@H](CC(C)C)C(=O)N[C@@H](CCCNC(=N)N)C(=O)N[C@@H](CC(N)=O)C(=O)N[C@@H](CC(C)C)C(=O)N[C@H](C(=O)N1CCC[C@H]1C(=O)N[C@@H](CCCNC(=N)N)C(=O)O)C(C)C)[C@@H](C)CC)C(C)C)[C@@H](C)CC [LL-34—L2A] (H-LAGDFFRKSKEKIGKEFKRIVQRIKDFLRNLVPR-OH; N-terminus and C-terminus assumed)	5 µM
CC[C@H](C)[C@H](NC(=O)[C@H](CCCCN)NC(=O)[C@H](CCC(=O)O)NC(=O)[C@H](CCCCN)NC(=O)[C@H](CO)NC(=O)[C@H](CCCCN)NC(=O)[C@H](CCCNC(=N)N)NC(=O)[C@H](Cc1ccccc1)NC(=O)[C@H](Cc1ccccc1)NC(=O)[C@H](CC(=O)O)NC(=O)CNC(=O)[C@H](CC(C)C)NC(=O)[C@@H](N)CC(C)C)C(=O)NCC(=O)N[C@@H](CCCCN)C(=O)N[C@@H](CCC(=O)O)C(=O)N[C@@H](Cc1ccccc1)C(=O)N[C@@H](CCCCN)C(=O)N[C@@H](CCCNC(=N)N)C(=O)N[C@H](C(=O)N[C@H](C(=O)N[C@@H](CCC(N)=O)C(=O)N[C@@H](CCCNC(=N)N)C(=O)N[C@H](C(=O)N[C@@H](CCCCN)C(=O)N[C@@H](CC(=O)O)C(=O)N[C@@H](Cc1ccccc1)C(=O)N[C@@H](CC(C)C)C(=O)N[C@@H](CCCNC(=N)N)C(=O)N[C@@H](C)C(=O)N[C@@H](CC(C)C)C(=O)N[C@H](C(=O)N1CCC[C@H]1C(=O)N[C@@H](CCCNC(=N)N)C(=O)O)C(C)C)[C@@H](C)CC)C(C)C)[C@@H](C)CC [LL-34—N30A] (H-LLGDFFRKSKEKIGKEFKRIVQRIKDFLRALVPR-OH; N-terminus and C-terminus assumed)	10 µM
